Assay results from patent publication US20260159810A1, “MEDIUM COMPOSITION FOR INDUCING DIFFERENTIATION FROM STEM CELLS TO MACROPHAGES AND DIFFERENTIATION METHOD USING SAME” (SUNGKWANG MEDICAL FOUNDATION, priority 2022, published 2026).

Legend:
mouse thymus cells = experiment: Measurement of phagocytosis: differentiated macrophages co-cultured with fluorescently stained target cells; assay type: cell-based; conditions: various E:T ratios; cells positive for both CD11b and target-cell fluorescence; FIG. 7
Procedure: Phagocytosis of macrophages obtained from Example 1 and Comparative Example 1 was confirmed. Specifically, macrophages (effectors) obtained from Example 1 and Comparative Example 1 were co-cultured with mouse thymus cells (targets, fluorescently stained) at various E:T (effector:target) ratios. After co-culture, cells were collected and phagocytosis of macrophages was measured by measuring cells that simultaneously expressed macrophage-specific markers (CD11b) and fluorescence that had been stained on target cells.

[1] = test system: macrophage-specific markers (MHC 1, MHC 2, CD11b, CD86, CX3CR1, CD16) in hPSC-derived floating cells; experiment: Identification of macrophage-specific markers by FACS; assay type: cell-based, human; conditions: medium supplemented with fasudil during differentiation to macrophages
Procedure: The expression pattern of markers specific to macrophages in the cells obtained in Example 1, Comparative Example 1, and Comparative Example 2 was investigated. Specifically, confirmation was performed using fluorescence-activated cell sorting (FACS, BD FACSCalibur™). Results of cells expressing CD11b, a surface marker of macrophages, and CD86, which is expressed in antigen presenting cells, confirmed through FACS are shown in FIG. 5. Results of cells expressing CX3CR1, which regulates macrophage function in inflammatory sites, and CD16, which is associated with antibody-dependent cell-mediated cytotoxicity (ADCC), confirmed through FACS are shown in FIG. 6.

O=S(=O)(c1cccc2cnccc12)N1CCCNCC1 [fasudil]
phagocytosis of macrophages (mouse thymus cells): increased
expression of macrophage-specific markers [1]: increased
